In ChEMBL document CHEMBL1132503, “N'-[2-(2-thiophene)ethyl]-N'-[2-(5-bromopyridyl)] thiourea as a potent inhibitor of NNI-resistant and multidrug-resistant human immunodeficiency virus-1” (Bioorg Med Chem Lett, 1999) one finds IC50, IC90 and CC50 data, which are given here for 16 molecules.

The target in experiment [1] is Human immunodeficiency virus type 1 reverse transcriptase (Human immunodeficiency virus 1, UniProt Q72547). Kind of experiment: (§1) Inhibition of recombinant reverse transcriptase (RT) in cell-free Quan-T-RT assay system.
In experiment [2] the target is Human immunodeficiency virus type 1 reverse transcriptase (Human immunodeficiency virus 1) (UniProt Q72547). The description is as §1.
A short description of experiment [3]: Cytotoxic concentration was evaluated using microculture tetrazolium assay (MTA). The conditions noted are these: Homo sapiens. The class given is functional.
Experiment [4] is described as follows: Ability to inhibit the replication of RT-MDR (V106A) strain of HIV-1 p24 antigen production in PBMC. The class given is functional. The conditions noted are these: Homo sapiens.
Experiment [5] is described as follows: Ability to inhibit the replication of A17 (Y181C) strain of HIV-1 p24 antigen production in PBMC. The settings on record: Homo sapiens. In kind it is functional.
Experiment [6] is described as follows: Ability to inhibit the replication of HTLV IIIb strain of HIV-1 p24 antigen production in PBMC. In kind it is functional. The settings on record: Homo sapiens.
Experiment [7] can be described thus: Ability to inhibit the replication of A17 variant (Y181C,K103N) strain of HIV-1 p24 antigen production in PBMC. In kind it is functional, Homo sapiens.
Experiment [8] in a line: Cytotoxicity was evaluated using microculture tetrazolium assay (MTA). In kind it is functional. The settings on record: Homo sapiens.

SMILES strings stand for the structures. A value given as a limit tells only on which side of the number the result lay.

By IC50 is commonly meant the concentration that inhibits the measured activity by half. For orientation: IC90 means the concentration needed for an effect of 90%. On to `CN1CCCC1CC/N=C(\S)Nc1ccc(Br)cn1` (stereo unspecified), for which, in experiment [1], the IC50 was greater than 100000 nM. Moreover, the concentration for an effect of 90% (IC90) in experiment [2] was greater than 100000 nM.
What is called CC50 is the concentration giving 50% cytotoxicity. Low readings indicate greater toxicity to the cells, high ones lower toxicity to the cells. For `S=C(NCCc1ccccn1)Nc1ccc(Br)cn1` [TROVIRDINE], the IC50 in experiment [1] was 600 nM; in experiment [4], 20 nM; in experiment [5], 500 nM; in experiment [6], 7 nM; in experiment [7] it was greater than 100000 nM. The CC50 in experiment [3] was greater than 100000 nM. The IC90 in experiment [2] is 12000 nM.
Turning to `S=C(NCCc1c[nH]cn1)Nc1ccc(Br)cn1`, the concentration for an effect of 90% (IC90) in experiment [2] is greater than 100000 nM.
Turning to `S=C(NCCc1ccco1)Nc1ccc(Br)cn1`, the IC50 in experiment [1] is 1200 nM. Also, the IC90 in experiment [2] is greater than 100000 nM.
In the case of `S=C(NCCc1cccs1)Nc1ccc(Br)cn1`, the IC50 in experiment [1] was found to be 800 nM; in experiment [4], 4 nM; in experiment [5], 48 nM; in experiment [6], 30 nM; in experiment [7] it was 3300 nM. Also, the CC50 in experiment [3] was greater than 100000 nM. For the same molecule, the IC90 in experiment [2] is 15000 nM.
For the molecule `Cc1ccnc2c1NC(=O)c1cccnc1N2C1CC1` [NEVIRAPINE], the 50% cytotoxic concentration (CC50) in experiment [3] was 10500 nM. For the same molecule, the IC50 in experiment [4] was 5000 nM; in experiment [5], greater than 100000 nM; in experiment [6], 34 nM; in experiment [7] it was greater than 100000 nM.
Consider `S=C(NCCc1ccc2c(c1)OCO2)Nc1ccc(Br)cn1`, for which the 50% inhibitory concentration (IC50) in experiment [1] came to 700 nM. Moreover, the IC90 in experiment [2] was greater than 100000 nM.
The molecule `CC(C)Nc1cccnc1N1CCN(C(=O)c2cc3cc(NS(C)(=O)=O)ccc3[nH]2)CC1` [DELAVIRDINE] gave a CC50 in experiment [3] of 3600 nM. The IC50 in experiment [4] is 400 nM; in experiment [5], 50000 nM; in experiment [6] it was 9 nM; in experiment [7], greater than 100000 nM.
Consider `S=C(NCCc1c[nH]c2ccccc12)Nc1ccc(Br)cn1`, for which the IC50 in experiment [1] is 900 nM. The IC90 in experiment [2] is greater than 100000 nM.
In the same order, the values of `S=C(NCCN1CCCC1)Nc1ccc(Br)cn1` are 4900 nM and greater than 100000 nM.
On to `Cc1cn([C@H]2C[C@H](N=[N+]=[N-])[C@@H](CO)O2)c(=O)[nH]c1=O` [ZIDOVUDINE], for which the IC50 was greater than 100000 nM in experiment [1], 200 nM in experiment [4], 6 nM in experiment [5] and 4 nM in experiment [7]. The molecule further showed a CC50 in experiment [3] greater than 100000 nM.
Take `S=C(NCCc1cnc[nH]1)Nc1ccc(Br)cn1`: the IC50 in experiment [1] was greater than 100000 nM.
`Fc1ccccc1CC/N=C(\S)Nc1ccc(Br)cn1` returned a CC50 in experiment [8] greater than 100000 nM. For the same molecule, the IC50 was 5 nM in experiment [4], 200 nM in experiment [5], less than 1 nM in experiment [6] and 41000 nM in experiment [7].
For `S=C(NCCN1CCCCC1)Nc1ccc(Br)cn1`, the IC50 in experiment [1] was 600 nM; in experiment [4], greater than 100000 nM; in experiment [5] it was greater than 100000 nM; in experiment [6] it was 1 nM; in experiment [7] it was greater than 100000 nM. Besides, in experiment [3], the CC50 was greater than 100000 nM.
Consider `CCOCn1c(Cc2ccccc2)c(C(C)C)c(=O)[nH]c1=O` [EMIVIRINE], for which the cytotoxic concentration (CC50) in experiment [3] was greater than 100000 nM. This molecule also came in with an IC50 in experiment [4] of 270 nM.
For `S=C(NCCN1CCOCC1)Nc1ccc(Br)cn1`, the half-inhibitory concentration (IC50) in experiment [1] was greater than 100000 nM. Besides, the IC90 in experiment [2] is greater than 100000 nM.
